Laboratory results: ChEMBL document CHEMBL5370592, “Synthesis and Structure-Activity Relationships of a New Class of Oxadiazoles Targeting DprE1 as Antitubercular Agents” (ACS Med Chem Lett, 2023)
In brackets after ≈: the same amount, converted by molar mass.

Assays:
[1] = Cytotoxicity against human HepG2 cells assessed as reduction in cell viability incubated for 24 hrs in DMEM/10% FBS supplemented with galactose by CellTiter-Glo luminescent assay; type: toxicity, cell-based
[2] = system: Mycobacterium tuberculosis; assay: Antitubercular activity against Mycobacterium tuberculosis H37Rv ATCC 27294 assessed as inhibition of bacterial growth cultured in Middlebrook 7H9/glucose/casitone/tyloxapol medium for 2 weeks; type: functional; conditions: H37Rv ATCC 27294, 336 h
[3] = system: Mycobacterium tuberculosis; assay: Antitubercular activity against Mycobacterium tuberculosis H37Rv ATCC 27294 assessed as inhibition of bacterial growth cultured in Middlebrook 7H9/BSA/Tyloxapol with glucose medium for 2 weeks; type: functional; conditions: H37Rv ATCC 27294, 336 h
[4] = Cytotoxicity against human HepG2 cells assessed as reduction in cell viability incubated for 24 hrs in DMEM/10% FBS supplemented with glucose by CellTiter-Glo luminescent assay; type: toxicity, cell-based

| SMILES | IC50 at 24 h [1] | MIC [2] | MIC [3] | IC50 at 24 h [4] |
| --- | --- | --- | --- | --- |
| O=C(C1CCN(c2nnc(-c3ccccc3)o2)CC1)N1CCC(Cc2ccccc2)C1 (centres undefined) | 37.5 µM | 6.25 µM (≈ 2.6 µg/mL) | 9.4 µM (≈ 3.92 µg/mL) | > 50 µM |
| CC(c1ccccc1)C1CCN(C(=O)C2CCN(c3nnc(-c4ccccc4)o3)CC2)CC1 (centres undefined) | > 50 µM | 0.2 µM (≈ 0.0889 µg/mL) | 1.56 µM (≈ 0.694 µg/mL) | > 50 µM |
| CCN(CC)C(=O)C1CCN(c2nnc(-c3ccccc3)o2)CC1 | > 50 µM | > 50 µM | > 50 µM | > 50 µM |
| O=C(NC1CCC(Cc2ccccc2)CC1)C1CCN(c2nnc(-c3ccccc3)o2)CC1 (centres undefined) | > 50 µM | 4.7 µM (≈ 2.09 µg/mL) | > 50 µM | > 50 µM |
| CC(C)C1CCN(C(=O)C2CCN(c3nnc(-c4ccccc4)o3)CC2)CC1 | > 50 µM | 2.3 µM (≈ 0.88 µg/mL) | 4.7 µM (≈ 1.8 µg/mL) | > 50 µM |
| O=C(C1CCN(c2nnc(-c3ccccc3)o2)CC1)N1CCc2ccccc2C1 | > 50 µM | 37 µM (≈ 14.4 µg/mL) | 50 µM (≈ 19.4 µg/mL) | > 50 µM |
| O=C(C1CCCN(c2nnc(-c3ccccc3)o2)C1)N1CCC(Cc2ccccc2)CC1 (centres undefined) | 37.5 µM | 25 µM (≈ 10.8 µg/mL) | 50 µM (≈ 21.5 µg/mL) | > 50 µM |
| O=C(C1CCN(c2nnc(-c3ccccc3)o2)CC1)N1CCC(CC2CCCCC2)CC1 | > 50 µM | 0.05 µM (≈ 0.0218 µg/mL) | 0.2 µM (≈ 0.0873 µg/mL) | > 50 µM |
| O=S(=O)(C1CCN(c2nnc(-c3ccccc3)o2)CC1)N1CCC(Cc2ccccc2)CC1 | 37.5 µM | 12.5 µM (≈ 5.83 µg/mL) | > 50 µM | > 50 µM |
| O=C(NCc1ccccc1)C1CCN(c2nnc(-c3ccccc3)o2)CC1 | > 50 µM | 25 µM (≈ 9.06 µg/mL) | > 50 µM | > 50 µM |
| O=C(c1ccccc1)C1CCN(C(=O)C2CCN(c3nnc(-c4ccccc4)o3)CC2)CC1 | 37.5 µM | 4.7 µM (≈ 2.09 µg/mL) | 9.4 µM (≈ 4.18 µg/mL) | > 50 µM |
| O=C(C1CCN(c2nnc(-c3ccccc3)o2)CC1)N1CCC(Cc2ccc(C(F)(F)F)cc2)CC1 | 37.5 µM | 0.1 µM (≈ 0.0499 µg/mL) | 0.3 µM (≈ 0.15 µg/mL) | > 50 µM |
| O=C(C1CCN(c2nnc(-c3ccccc3)o2)CC1)N1CCC(=Cc2ccccc2)CC1 | 37.5 µM | 0.3 µM (≈ 0.129 µg/mL) | 2.3 µM (≈ 0.986 µg/mL) | > 50 µM |
| O=C(C1CCN(c2nnc(-c3ccccc3)s2)CC1)N1CCC(Cc2ccccc2)CC1 | 37.5 µM | 0.3 µM (≈ 0.134 µg/mL) | 1.2 µM (≈ 0.536 µg/mL) | > 50 µM |
| CC(C)(C)C1CCN(C(=O)C2CCN(c3nnc(-c4ccccc4)o3)CC2)CC1 | > 50 µM | 1.2 µM (≈ 0.476 µg/mL) | 4.7 µM (≈ 1.86 µg/mL) | > 50 µM |
| O=C(C1CCN(c2noc(-c3ccccc3)n2)CC1)N1CCC(Cc2ccccc2)CC1 | 37.5 µM | 0.3 µM (≈ 0.129 µg/mL) | 1.2 µM (≈ 0.517 µg/mL) | > 50 µM |
